Holding throughout (test): NCI anticancer screen, dose series, 48 h
Test [1] relates to KM12 colon.
Test [2] deals with SK-MEL-2 melanoma.
The subject of test [3] is SNB-75 CNS.
In test [4] the test system is HT29 colon.
Test [5] concerns SR leukemia.
Test [6] deals with SF-268 CNS.
Test [7] deals with UO-31 renal.
The test system of test [8] is ACHN renal.
Test [9] deals with 786-0 renal.
The subject of test [10] is HCT-116 colon.

Several values for one entry are separate records, joined by “and”; a condition that tells them apart may be missing. Equal entries are not always repeated.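 Protocol summary: plate cells (96-well), add compound at 5 concentrations, incubate 48 h, interpolate endpoints linearly. GI50: concentration for 50% inhibition of growth. TGI denotes the concentration required for complete inhibition of growth.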

In the case of `C=C1C(=O)OC2C1CC[C@H](C)C13OC(=O)CC1[C@@]23C` (stereo not given in full), the TGI in [1], in [2], in [3], in test [4], in test [5] and in test [6] was greater than 100 µM each time. For the same compound, the TGI in test [7], in [8], in test [9] and in test [10] was greater than 100 µM throughout.

For the compound `CC1=CCC(OC(=O)C(C)(C)CCC(O)(C(=O)OC2(C(C)C)CCC3(C)OC3C2)C(C)C)(C(C)C)CC1` (stereo not given), the GI50 in test [1] was 0.793 µM; in [2] it was 0.79 µM; in test [3], 0.0258 µM; in [4], 0.606 µM; in test [5], 0.266 µM; in test [6], 0.603 µM. Besides, the GI50 is 0.0634 µM in test [7], 0.107 µM in test [8], 0.616 µM in [9] and 0.113 µM in test [10]. The TGI in test [1] is 1.6 µM; in test [2], 1.78 µM; in test [3], 1.41 µM; in test [4] it was 1.75 µM; in test [5], 1.51 µM; in [6] it was 1.46 µM. Moreover, the TGI in test [7] turned out to be 0.164 µM; in [8], 0.311 µM; in test [9], 1.54 µM; in test [10] it was 0.381 µM.

Turning to `O=C1OC(CC(=O)c2ccc(Cl)cc2Cl)C(Cl)=C1Cl` (stereo not given), the TGI is greater than 100 µM in [1]; 41.7 µM in test [2]; greater than 61.1 µM in test [3]; 36 µM in test [4]; 70.4 µM in test [5]; 62.7 µM in [6]. The TGI in test [7] is greater than 56.7 µM; in test [8], greater than 56.9 µM; in test [9] it was 52.2 µM; in test [10] it was 32.9 µM.

For `CC(C)(O)C1CCC(Nc2ccc3ncc(-c4cccc(C(F)(F)F)c4)n3n2)CC1` (stereo not given), the GI50 in test [1] is 0.132 µM; in test [2], 2.13 µM; in test [3] it was 1.77 µM; in test [4], 2.23 µM; in [5] it was 1.87 µM; in [6] it was 3.79 µM. Also, the GI50 in test [7] was 1.07 µM; in [8] it was 2.12 µM; in test [9], 1.94 µM; in test [10] it was 3.54 µM. Further, the TGI in [1] worked out at 11.7 µM; in test [2], 4.82 µM; in test [3], 8.99 µM; in test [4] it was 12 µM; in test [5], 11.1 µM; in test [6], 18.2 µM. Further, the TGI came out at 11 µM in [7], 12.3 µM in [8], 4.64 µM in test [9] and 18.5 µM in [10].

As to `CN(C)CCNC(=O)c1ccc(C(=O)NCCN(C)C)c2nc3ccccc3cc12`, the TGI in test [1] was 4.14 µM; in [2], 2.57 µM; in test [3] it was 3.46 µM; in test [4], 6.15 µM; in test [5], 2.49 µM; in [6], 6.79 µM. Besides, the TGI is 18 µM in test [7], 8.58 µM in [8], 13.8 µM in [9] and 6.08 µM in [10].

With `CCCCCCCCCCC(O)[C@H]1CCC(C2CC[C@H]([C@H](O)CCCCCCCCCCC(O)CC3=CC(C)OC3=O)O2)O1` (stereo not given in full), the TGI in [1] was 3.66 µM; in test [2] it was 3.43 µM and 4.72 µM; in [3], 5.08 µM and 5.94 µM; in [4] it was 2.88 µM and 14.4 µM; in test [5], 9.23 µM; in [6], 3.67 µM and 8.61 µM. In addition, the TGI in test [7] was 2.36 µM and 2.67 µM; in test [8], 2.9 µM; in test [9], 7.1 µM; in [10], 8.87 µM and 10 µM. Further, the GI50 in test [2] was 1.76 µM; in [3], 2.25 µM; in test [6], 1.11 µM; in test [9], 2.68 µM; in test [10], 2.24 µM.

For the compound `O=C1c2ccc3c4c5ccc(c24)C(=O)N1CCCOCCCCOCCCNCc1ccc(cc1)CNCCCOCCCCOCCCN(C3=O)C5=O`, the GI50 in test [1] is 0.896 µM; in [2], 0.861 µM; in test [3], 0.724 µM; in [4], 0.956 µM; in test [5] it was 0.621 µM; in test [6] it was 0.972 µM. The GI50 was 1.1 µM in [7], 0.859 µM in test [8], 0.956 µM in test [9] and 0.888 µM in [10]. The TGI in [1] worked out at 2.06 µM; in [2] it was 1.73 µM; in [3] it was 1.48 µM; in test [4] it was 2.36 µM; in test [5], 2.62 µM; in test [6], 2.43 µM. The TGI in test [7] is 5.12 µM; in [8] it was 1.57 µM; in [9], 2.02 µM; in [10], 1.9 µM.

With `c1cc(CCN2CCCCC2)ccn1`, the TGI in test [1], in test [2], in test [3], in test [4], in test [5] and in [6] was greater than 100 µM throughout. In addition, the TGI in test [7], in [8], in test [9] and in [10] was greater than 100 µM throughout.

Regarding `C[C@]12CC[C@@H]3c4ccc(O)cc4CC[C@H]3[C@@H]1CC[C@@H]2NS(=O)(=O)c1cccc(C(F)(F)F)c1`, the GI50 in test [1] was 3.4 µM; in test [2], 3.7 µM; in [3] it was 2.98 µM; in [4], 3.39 µM; in test [5], 3.98 µM; in test [6] it was 4.52 µM. For the same compound, the GI50 is 2.25 µM in [7], 3.2 µM in test [8], 3.06 µM in [9] and 2.61 µM in [10]. In addition, the TGI worked out at 11.8 µM in test [1]; 13 µM in [2]; 15.5 µM in test [3]; 10.2 µM in [4]; 27.2 µM in [5]; 18.5 µM in test [6]. Besides, the TGI is 11.6 µM in test [7], 11.4 µM in test [8], 8.95 µM in test [9] and 7.12 µM in [10].

(Values after PubChem BioAssay (NCI).)
